The structures appear in SMILES notation. Where a SMILES comes first, the peptide text is derived from it. [ ]: non-standard residue; d: D form. The star is where a group is joined. NH(4-picolyl) = c1cc(CN*)ccn1; PEG4 = NCCOCCOCCOCCOCCC(=O)O; Nle = CCCC[C@H](N)C(=O)O

A short description of the first data set: Pharmacokinetics in rats after intravenous bolus injection (systemic clearance). Format: in vivo. To be noted: rat, plasma, 0.1 mg FB/kg, adult male Sprague-Dawley rats, i.v. bolus, dose 0.10 mg FB/kg, read-out: CL (ml/kg/min) Average. Put shortly:
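Systemic clearance from noncompartmental analysis as dose per kg over trapezoidal AUC extrapolated to infinity, mean and SD across animals. Plasma (K2EDTA) levels by LC/MS/MS after single IV jugular-vein bolus, 0.1-1.0 mg/kg, in 3-4 cannulated male Sprague-Dawley rats.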
As for `CCCC[C@H](NC(=O)[C@H](CCC(=O)O)NC(=O)[C@H](CC(=O)O)NC(=O)[C@H](CO)NC(=O)[C@H](Cc1ccccc1)NC(=O)[C@H](CO)NC(=O)CNC(=O)[C@H](CC(=O)O)NC(=O)CNC(=O)[C@@H](N)Cc1cnc[nH]1)C(=O)N[C@H](Cc1ccccc1)C(=O)N[C@H](C(=O)N[C@H](C(=O)N[C@@H](CC(C)C)C(=O)N[C@@H](CC(=O)O)C(=O)N[C@@H](CC(C)C)C(=O)N[C@@H](CC(C)C)C(=O)N[C@@H](C)C(=O)N[C@@H](C)C(=O)N[C@@H](CCCNC(=N)N)C(=O)N[C@@H](CC(=O)O)C(=O)N[C@@H](Cc1ccccc1)C(=O)N[C@H](C(=O)N[C@@H](CC(N)=O)C(=O)N[C@@H](Cc1c[nH]c2ccccc12)C(=O)N[C@@H](CC(C)C)C(=O)N[C@H](C(=O)N[C@@H](CCC(N)=O)C(=O)N[C@H](C(=O)N[C@@H](CCCCN)C(=O)N[C@H](C(=O)N[C@H](C(=O)N[C@@H](CC(=O)O)C(N)=O)[C@@H](C)O)[C@@H](C)CC)[C@@H](C)O)[C@@H](C)CC)[C@@H](C)CC)[C@@H](C)CC)[C@@H](C)O` [Compound 51, [Gly2,Nle10,D-Phe11,Leu16] hGLP-2(1-33)-NH2] (H-HGDGSFSDE[Nle][dF]TILDLLAARDFINWLIQTKITD-NH2), the clearance stood at 0.2 mL/kg/min.

The data set is the same for the next values; noted with them: rat, plasma, 0.2 mg FB/kg, adult male Sprague-Dawley rats, i.v. bolus, dose 0.20 mg FB/kg, read-out: CL (ml/kg/min) Average.
In the case of `CCCC[C@H](NC(=O)[C@H](CCC(=O)O)NC(=O)[C@H](CC(=O)O)NC(=O)[C@H](CO)NC(=O)[C@H](Cc1ccccc1)NC(=O)[C@H](CO)NC(=O)CNC(=O)[C@H](CC(=O)O)NC(=O)CNC(=O)[C@@H](N)Cc1cnc[nH]1)C(=O)N[C@H](Cc1ccccc1)C(=O)N[C@H](C(=O)N[C@H](C(=O)N[C@@H](CC(C)C)C(=O)N[C@@H](CC(=O)O)C(=O)N[C@@H](CC(C)C)C(=O)N[C@@H](CC(C)C)C(=O)N[C@@H](C)C(=O)N[C@@H](C)C(=O)N[C@@H](CCCNC(=N)N)C(=O)N[C@@H](CC(=O)O)C(=O)N[C@@H](Cc1ccccc1)C(=O)N[C@H](C(=O)N[C@@H](CC(N)=O)C(=O)N[C@@H](Cc1c[nH]c2ccccc12)C(=O)N[C@@H](CC(C)C)C(=O)N[C@H](C(=O)N[C@@H](CCC(N)=O)C(=O)N[C@H](C(=O)N[C@@H](CCCCN)C(=O)N[C@H](C(=O)N[C@H](C(=O)N[C@@H](CC(=O)O)C(N)=O)[C@@H](C)O)[C@@H](C)CC)[C@@H](C)O)[C@@H](C)CC)[C@@H](C)CC)[C@@H](C)CC)[C@@H](C)O` [Compound 51, [Gly2,Nle10,D-Phe11,Leu16] hGLP-2(1-33)-NH2] (H-HGDGSFSDE[Nle][dF]TILDLLAARDFINWLIQTKITD-NH2), the clearance turned out to be 0.27 mL/kg/min.

Turning to `CCCC[C@H](NC(=O)[C@H](CCC(=O)O)NC(=O)[C@H](CC(=O)O)NC(=O)[C@H](CO)NC(=O)[C@H](Cc1ccccc1)NC(=O)[C@H](CO)NC(=O)CNC(=O)[C@H](CC(=O)O)NC(=O)CNC(=O)[C@@H](N)Cc1c[nH]cn1)C(=O)N[C@H](Cc1ccccc1)C(=O)N[C@H](C(=O)N[C@H](C(=O)N[C@@H](CC(C)C)C(=O)N[C@@H](CC(=O)O)C(=O)N[C@@H](CC(C)C)C(=O)N[C@@H](CC(C)C)C(=O)N[C@@H](C)C(=O)N[C@H](C(=O)N[C@@H](CCCNC(=N)N)C(=O)N[C@@H](CC(=O)O)C(=O)N[C@@H](Cc1ccccc1)C(=O)N[C@H](C(=O)N[C@@H](CC(N)=O)C(=O)N[C@@H](Cc1c[nH]c2ccccc12)C(=O)N[C@@H](CC(C)C)C(=O)N[C@H](C(=O)N[C@@H](CCC(N)=O)C(=O)N[C@H](C(=O)N[C@@H](CCCCN)C(N)=O)[C@@H](C)O)[C@@H](C)CC)[C@@H](C)CC)[C@@H](C)O)[C@@H](C)CC)[C@@H](C)O` [Compound 52, [Gly2,Nle10,D-Phe11,Leu16,Thr19] hGLP-2(1-30)-NH2] (H-HGDGSFSDE[Nle][dF]TILDLLATRDFINWLIQTK-NH2), the clearance was determined as 0.49 mL/kg/min.

Take `CCCC[C@H](NC(=O)[C@H](CCC(=O)O)NC(=O)[C@H](CC(=O)O)NC(=O)[C@H](CO)NC(=O)[C@H](Cc1ccccc1)NC(=O)[C@H](CO)NC(=O)CNC(=O)[C@H](CC(=O)O)NC(=O)CNC(=O)[C@@H](N)Cc1cnc[nH]1)C(=O)N[C@H](Cc1ccccc1)C(=O)N[C@H](C(=O)N[C@H](C(=O)N[C@@H](CC(C)C)C(=O)N[C@@H](CC(=O)O)C(=O)N[C@@H](CC(C)C)C(=O)N[C@@H](CC(C)C)C(=O)N[C@@H](C)C(=O)N[C@@H](C)C(=O)N[C@@H](CCCNC(=N)N)C(=O)N[C@@H](CC(=O)O)C(=O)N[C@@H](Cc1ccccc1)C(=O)N[C@H](C(=O)N[C@@H](CC(N)=O)C(=O)N[C@@H](Cc1c[nH]c2ccccc12)C(=O)N[C@@H](CC(C)C)C(=O)N[C@H](C(=O)N[C@@H](CCC(N)=O)C(=O)N[C@H](C(=O)N[C@@H](CCCCN)C(=O)N[C@H](C(=O)N[C@H](C(=O)N[C@@H](CC(=O)O)C(=O)NCC)[C@@H](C)O)[C@@H](C)CC)[C@@H](C)O)[C@@H](C)CC)[C@@H](C)CC)[C@@H](C)CC)[C@@H](C)O` [Compound 53, [Gly2,Nle10,D-Phe11,Leu16] hGLP-2(1-33)-NHEt] (H-HGDGSFSDE[Nle][dF]TILDLLAARDFINWLIQTKITD-NHEt): the clearance worked out at 0.19 mL/kg/min.

In the case of `CCCC[C@H](NC(=O)[C@H](CCC(=O)O)NC(=O)[C@H](CC(=O)O)NC(=O)[C@H](CO)NC(=O)[C@H](Cc1ccccc1)NC(=O)[C@H](CO)NC(=O)CNC(=O)[C@H](CC(=O)O)NC(=O)CNC(=O)[C@@H](N)Cc1c[nH]cn1)C(=O)N[C@H](Cc1ccccc1)C(=O)N[C@H](C(=O)N[C@H](C(=O)N[C@@H](CC(C)C)C(=O)N[C@@H](CC(=O)O)C(=O)N[C@@H](CC(C)C)C(=O)N[C@@H](CC(C)C)C(=O)N[C@@H](C)C(=O)N[C@@H](C)C(=O)N[C@@H](CCCNC(=N)N)C(=O)N[C@@H](CC(=O)O)C(=O)N[C@@H](Cc1ccccc1)C(=O)N[C@H](C(=O)N[C@@H](CC(N)=O)C(=O)N[C@@H](Cc1c[nH]c2ccccc12)C(=O)N[C@@H](CC(C)C)C(=O)N[C@H](C(=O)N[C@@H](CCC(N)=O)C(=O)N[C@H](C(=O)N[C@@H](CCCCN)C(=O)N[C@H](C(=O)N[C@H](C(=O)N[C@@H](CC(=O)O)C(=O)NCc1ccncc1)[C@@H](C)O)[C@@H](C)CC)[C@@H](C)O)[C@@H](C)CC)[C@@H](C)CC)[C@@H](C)CC)[C@@H](C)O` [Compound 54, [Gly2,Nle10,D-Phe11,Leu16] hGLP-2(1-33)-NH-4-Pic] (H-HGDGSFSDE[Nle][dF]TILDLLAARDFINWLIQTKITD-{NH(4-picolyl)}), the clearance stood at 0.27 mL/kg/min.

With `CCCC[C@H](NC(=O)[C@H](CCC(=O)O)NC(=O)[C@H](CC(=O)O)NC(=O)[C@H](CO)NC(=O)[C@H](Cc1ccccc1)NC(=O)[C@H](CO)NC(=O)CNC(=O)[C@H](CC(=O)O)NC(=O)CNC(=O)[C@@H](N)Cc1cnc[nH]1)C(=O)N[C@H](Cc1ccccc1)C(=O)N[C@H](C(=O)N[C@H](C(=O)N[C@@H](CC(C)C)C(=O)N[C@@H](CC(=O)O)C(=O)N[C@@H](CC(C)C)C(=O)N[C@@H](CC(C)C)C(=O)N[C@@H](C)C(=O)N[C@@H](C)C(=O)N[C@@H](CCCNC(=N)N)C(=O)N[C@@H](CC(=O)O)C(=O)N[C@@H](Cc1ccccc1)C(=O)N[C@H](C(=O)N[C@@H](CC(N)=O)C(=O)N[C@@H](Cc1c[nH]c2ccccc12)C(=O)N[C@@H](CC(C)C)C(=O)N[C@H](C(=O)N[C@@H](CCC(N)=O)C(=O)N[C@H](C(=O)N[C@@H](CCCCN)C(=O)N[C@H](C(=O)N[C@H](C(=O)N[C@@H](CC(=O)O)C(=O)NCCOCCOCCOCCOCCC(N)=O)[C@@H](C)O)[C@@H](C)CC)[C@@H](C)O)[C@@H](C)CC)[C@@H](C)CC)[C@@H](C)CC)[C@@H](C)O` [Compound 55, [Gly2,Nle10,D-Phe11,Leu16] hGLP-2(1-33)-NH—((CH2)2O)4—(CH2)2—C(O)—NH2] (H-HGDGSFSDE[Nle][dF]TILDLLAARDFINWLIQTKITD[PEG4]-NH2), the clearance is 0.23 mL/kg/min.
